Values after ≈ are worked out from the molar mass of the structure shown.

Test [1] deals with B. anthracis GFP sterne spores. The test can be described thus: microbe, parasite or virus in culture. The format is cell-based. Particulars: for MIC: Bacillus anthracis, read-out: MIC B. anthracis spores.
Test [2] concerns B. anthracis GFP sterne vegetative cells. The test can be described thus: microbe, parasite or virus in culture. The format is cell-based. The conditions noted are these: Bacillus anthracis, read-out: MIC B. anthracis vegetative cells.
In the next test the target is anthrax lethal factor (Bacillus anthracis, UniProt P15917). The format is biochemical.
Chain of anthrax lethal factor (P15917 34-809 limits assumed): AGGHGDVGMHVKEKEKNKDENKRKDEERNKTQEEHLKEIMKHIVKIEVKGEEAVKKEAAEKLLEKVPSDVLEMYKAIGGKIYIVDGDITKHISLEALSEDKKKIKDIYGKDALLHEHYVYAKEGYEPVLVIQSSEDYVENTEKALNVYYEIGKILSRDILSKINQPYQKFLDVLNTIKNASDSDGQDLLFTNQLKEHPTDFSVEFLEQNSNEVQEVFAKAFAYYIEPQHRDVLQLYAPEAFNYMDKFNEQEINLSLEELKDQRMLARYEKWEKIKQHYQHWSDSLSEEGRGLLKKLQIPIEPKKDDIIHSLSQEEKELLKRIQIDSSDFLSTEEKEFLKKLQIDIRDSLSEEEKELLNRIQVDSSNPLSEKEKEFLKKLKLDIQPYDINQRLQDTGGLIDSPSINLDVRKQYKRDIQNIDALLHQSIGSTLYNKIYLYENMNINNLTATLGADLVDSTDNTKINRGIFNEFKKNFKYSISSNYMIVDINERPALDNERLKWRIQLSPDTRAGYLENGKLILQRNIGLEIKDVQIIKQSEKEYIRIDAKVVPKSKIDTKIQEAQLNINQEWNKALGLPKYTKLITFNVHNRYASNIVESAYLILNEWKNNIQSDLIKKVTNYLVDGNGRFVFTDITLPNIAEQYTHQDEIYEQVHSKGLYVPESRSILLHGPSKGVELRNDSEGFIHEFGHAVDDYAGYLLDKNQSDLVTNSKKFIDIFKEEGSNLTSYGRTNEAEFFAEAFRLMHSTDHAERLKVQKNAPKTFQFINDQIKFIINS

With `O=C(Nc1ccc(C2=NCCN2)cc1)c1cc2ccc(C3=NCCN3)cc2[nH]1` [NSC 294206, 6-(4,5-dihydro-1H-imidazol-2-yl)-N-[4-(4,5-dihydro-1H-imidazol-2-yl)phenyl]-1H-indole-2-carboxamide], the MIC in test [1] came out at 8.9 mg/L (≈ 23.9 µM); in test [2] it was 17.8 mg/L (≈ 47.8 µM). Besides, on anthrax lethal factor, the “inhibition of the protease activity of anthrax lethal factor” value (from here on “inhibition”) was “inhibit”.

On to `C(=C\c1cc2ccc(C3=NCCN3)cc2[nH]1)/c1ccc(C2=NCCN2)cc1` [NSC 317887, 6-(4,5-dihydro-1H-imidazol-2-yl)-2-[(E)-2-[4-(4,5-dihydro-1H-imidazol-2-yl)phenyl]ethenyl]-1H-indole], for which the MIC was 8.56 mg/L (≈ 24.1 µM) in test [1] and > 17.1 mg/L in test [2]. Moreover, the “inhibition” value on anthrax lethal factor is recorded as “inhibit”.

On to `N=C(N)c1ccc2[nH]c(/C=C/c3cc4cc(C(=N)N)ccc4o3)cc2c1` [NSC 290107, 2-[(E)-2-(5-carbamimidoylbenzofuran-2-yl)ethenyl]-1H-indole-5-carboximidamide], for which the figures for the MIC in test [1] and in test [2] were 8.32 mg/L (≈ 24.2 µM) and > 16.6 mg/L, respectively. In addition, the “inhibition” value against anthrax lethal factor is recorded as “inhibit”.

Turning to `C(=C\c1cc2ccc(C3=NCCN3)cc2o1)/c1cc2cc(C3=NCCN3)ccc2[nH]1` [NSC 294204, 5-(4,5-dihydro-1H-imidazol-2-yl)-2-[(E)-2-[6-(4,5-dihydro-1H-imidazol-2-yl)benzofuran-2-yl]ethenyl]-1H-indole], the figures for the MIC in test [1] and in test [2] were 18.7 mg/L (≈ 47.3 µM) and > 18.7 mg/L, respectively. Also, the “inhibition” value against anthrax lethal factor is listed as “inhibit”.

For `C(=C\c1cc2cc(C3=NCCN3)ccc2[nH]1)/c1ccc(C2=NCCN2)cc1` [NSC 317885, 5-(4,5-dihydro-1H-imidazol-2-yl)-2-[(E)-2-[4-(4,5-dihydro-1H-imidazol-2-yl)phenyl]ethenyl]-1H-indole], the MIC in test [1] and in test [2] was > 17.1 mg/L each time. The “inhibition” value at anthrax lethal factor is reported as “inhibit”.

In the case of `N=C(N)c1ccc(/C=C/C=C/c2cc3cc(C(=N)N)ccc3o2)cc1` [NSC 308572, 2-[(1E,3E)-4-(4-carbamimidoylphenyl)buta-1,3-dienyl]benzofuran-5-carboximidamide], the results for the MIC in test [1] and in test [2] were 8.06 mg/L (≈ 24.4 µM) and 16.1 mg/L (≈ 48.8 µM), respectively. Moreover, at anthrax lethal factor, the “inhibition” value was “inhibit”.

In the case of `N=C(N)c1ccc(/C=C/c2cc3ccc(C(=N)N)cc3[nH]2)cc1` [NSC 317886, 2-[(E)-2-(4-carbamimidoylphenyl)ethenyl]-1H-indole-6-carboximidamide], the MIC was found to be 7.52 mg/L (≈ 24.8 µM) in test [1] and 15 mg/L (≈ 49.5 µM) in test [2]. In addition, the “inhibition” value against anthrax lethal factor is “inhibit”.

On to `N=C(N)c1ccc2oc(CCc3cc4ccc(C(=N)N)cc4[nH]3)cc2c1` [NSC 290109, 2-[2-(5-carbamimidoylbenzofuran-2-yl)ethyl]-1H-indole-6-carboximidamide], for which the MIC in test [1] and in test [2] was 8.36 mg/L (≈ 24.2 µM) each time. The “inhibition” value against anthrax lethal factor was “inhibit”.

As to `N=C(N)c1ccc2oc(/C=C/C=C/c3cc4cc(C(=N)N)ccc4o3)cc2c1` [NSC 300511, 2-[(1E,3E)-4-(5-carbamimidoylbenzofuran-2-yl)buta-1,3-dienyl]benzofuran-5-carboximidamide], the values for the MIC in test [1] and in test [2] were 2.21 mg/L (≈ 5.98 µM) and 17.7 mg/L (≈ 47.8 µM), respectively. In addition, the “inhibition” value against anthrax lethal factor is given as “inhibit”.

For `C(/C=C/c1cc2cc(C3=NCCN3)ccc2o1)=C\c1cc2cc(C3=NCCN3)ccc2o1` [NSC 308571, 2-[2-[(1E,3E)-4-[5-(4,5-dihydro-1H-imidazol-2-yl)benzofuran-2-yl]buta-1,3-dienyl]benzofuran-5-yl]-4,5-dihydro-1H-imidazole], the MIC turned out to be 9.9 mg/L (≈ 23.4 µM) in test [1] and 19.8 mg/L (≈ 46.9 µM) in test [2]. Further, the “inhibition” value at anthrax lethal factor is recorded as “inhibit”.

With `N=C(N)c1ccc2cc(/C=C/c3cc4ccc(C(=N)N)cc4o3)[nH]c2c1` [NSC 294200, 2-[(E)-2-(6-carbamimidoylbenzofuran-2-yl)ethenyl]-1H-indole-6-carboximidamide], the MIC in test [1] is 2.08 mg/L (≈ 6.06 µM); in test [2], 4.16 mg/L (≈ 12.1 µM). The “inhibition” value on anthrax lethal factor is given as “inhibit”.

For the molecule `Cc1c(/C=C/c2oc3ccc(C(=N)N)cc3c2C)oc2ccc(C(=N)N)cc12` [NSC 266474, 2-[(E)-2-(5-carbamimidoyl-3-methyl-benzofuran-2-yl)ethenyl]-3-methyl-benzofuran-5-carboximidamide], the MIC in test [1] and in test [2] was > 17.8 mg/L each time. For the same molecule, the “inhibition” value at anthrax lethal factor is given as “inhibit”.

Consider `C(=C\c1cc2cc(C3=NCCN3)ccc2o1)/c1cc2cc(C3=NCCN3)ccc2[nH]1` [NSC 290108, 5-(4,5-dihydro-1H-imidazol-2-yl)-2-[(E)-2-[5-(4,5-dihydro-1H-imidazol-2-yl)benzofuran-2-yl]ethenyl]-1H-indole], for which the MIC was 18.5 mg/L (≈ 46.7 µM) in test [1] and > 18.5 mg/L in test [2]. For the same molecule, the “inhibition” value against anthrax lethal factor is recorded as “inhibit”.

As to `C(=C\c1cc2ccc(C3=NCCN3)cc2[nH]1)/c1ccc2cc(C3=NCCN3)[nH]c2c1` [NSC 341907, 6-(4,5-dihydro-1H-imidazol-2-yl)-2-[(E)-2-[2-(4,5-dihydro-1H-imidazol-2-yl)-1H-indol-6-yl]ethenyl]-1H-indole], the MIC was determined as 9.34 mg/L (≈ 23.7 µM) in test [1] and 18.7 mg/L (≈ 47.4 µM) in test [2]. Further, the “inhibition” value at anthrax lethal factor is recorded as “inhibit”.

As to `N=C(N)c1ccc(/C=C/c2cc3cc(C(=N)N)ccc3[nH]2)cc1` [NSC 317884, 2-[(E)-2-(4-carbamimidoylphenyl)ethenyl]-1H-indole-5-carboximidamide], the MIC was 15 mg/L (≈ 49.6 µM) in test [1] and > 15 mg/L in test [2]. Also, the “inhibition” value against anthrax lethal factor is on record as “inhibit”.

For `C(=C\c1cc2ccc(C3=NCCN3)cc2o1)/c1cc2ccc(C3=NCCN3)cc2[nH]1` [NSC 294201, 6-(4,5-dihydro-1H-imidazol-2-yl)-2-[(E)-2-[6-(4,5-dihydro-1H-imidazol-2-yl)benzofuran-2-yl]ethenyl]-1H-indole], the MIC in test [1] stood at 4.68 mg/L (≈ 11.8 µM); in test [2] it was 18.7 mg/L (≈ 47.3 µM). For the same molecule, at anthrax lethal factor, the “inhibition” value is listed as “inhibit”.

With `C(=C\c1cc2cc(C3=NCCN3)ccc2o1)/c1ccc(C2=NCCN2)cc1` [NSC 308570, 2-[2-[(E)-2-[4-(4,5-dihydro-1H-imidazol-2-yl)phenyl]ethenyl]benzofuran-5-yl]-4,5-dihydro-1H-imidazole], the MIC in test [1] and in test [2] was 17.2 mg/L (≈ 48.1 µM) throughout.

Consider `c1cc(-c2cc3ccc(C4=NCCN4)cc3[nH]2)ccc1C1=NCCN1` [NSC 278995, 6-(4,5-dihydro-1H-imidazol-2-yl)-2-[4-(4,5-dihydro-1H-imidazol-2-yl)phenyl]-1H-indole], for which the MIC in test [1] and in test [2] was > 16.1 mg/L each time.

Consider `Cc1cc(N)c2cc(NC(=O)Nc3ccc4nc(C)cc(N)c4c3)ccc2n1` [NSC 12155, 1,3-bis(4-amino-2-methyl-quinolin-6-yl)urea], for which the MIC is 4.45 mg/L (≈ 11.9 µM) in test [1] and 17.8 mg/L (≈ 47.8 µM) in test [2].

For the molecule `C/C(=C\c1cc2cc(C(=N)N)ccc2o1)c1cc2cc(C(=N)N)ccc2o1` [NSC 266476, 2-[(E)-1-(5-carbamimidoylbenzofuran-2-yl)prop-1-en-2-yl]benzofuran-5-carboximidamide], the MIC in test [1] and in test [2] was > 17.2 mg/L throughout. The “inhibition” value at anthrax lethal factor is given as “inhibit”.

As for `N=C(N)c1ccc2[nH]c(/C=C/c3cc4ccc(C(=N)N)cc4o3)cc2c1` [NSC 294203, 2-[(E)-2-(6-carbamimidoylbenzofuran-2-yl)ethenyl]-1H-indole-5-carboximidamide], the MIC was 16.6 mg/L (≈ 48.5 µM) in test [1] and > 16.6 mg/L in test [2]. The “inhibition” value at anthrax lethal factor was “inhibit”.

Consider `c1cc(-c2[nH]c3cc(C4=NCCN4)ccc3c2-c2cc3ccc(C4=NCCN4)cc3[nH]2)ccc1C1=NCCN1` [NSC 341911, 6-(4,5-dihydro-1H-imidazol-2-yl)-3-[6-(4,5-dihydro-1H-imidazol-2-yl)-1H-indol-2-yl]-2-[4-(4,5-dihydro-1H-imidazol-2-yl)phenyl]-1H-indole], for which the “MIC B. anthracis spores” value in test [1] was 24.88 mg/L (≈ 48.5 µM). Besides, the MIC in test [2] stood at 24.9 mg/L (≈ 48.5 µM). In addition, the “inhibition” value on anthrax lethal factor was “inhibit”.

For the origin of these results see patent US8691859B2 (priority 2005, dated 2014).
